Experiments:
A375 melanoma cells = assay: Surviving fraction (MTS) of A375-shGFP versus A375-shFOXO4 cells treated with chemotherapeutic agents; type: cell-based, human
Procedure: FIG. 12. FOXO4 inhibition on sensitizes A375 melanoma cells to inhibitors of the BRAF/MEK pathway. A) A375 cells stably infected with a control shRNA (shGFP) or an shRNA against FOXO4 (shFOXO4) were treated with the indicated concentrations of the BRAF^V600E-inhibitor PLX4032 and the percentage of the surviving fraction on was determined by Aqueous CellQuant assay either after day 6 (left panel) or day 11 (right panel). Note that for the right panel the cells were refreshed at day 7 with the exact same concentration on of PLX4032. B) Similar experiment as in A), except with the general RAF inhibitor RAF265. C) Similar experiment as in A), except with the MEK inhibitor AZD6244.
FIG. 12A: 2×10^4 A375-shGFP or A375-shFOXO4-2 cells were plated in triplicate in 96-well plate chambers. The next day the cells were incubated with the indicated concentrations of PLX4032 or left untreated. After 6 days the a CellTiter 96® AQueous One Solution Cell Proliferation Assay (MTS) was performed according to the manufacturer's instructions (Promega) to determine the relative number of cells versus Mock treated A375-shGFP or A375-shFOXO4-2 melanoma cells (Left panel). Additionally, in a separate experiment the cells were refreshed at day 7 with the same dose of PLX4032 and left for another 4 days after which the same procedure was performed. […]

FOXO4 = FOXO4 knockdown by short hairpins: FOXO4 mRNA (QPCR) and punctate FOXO4 staining; type: cell-based, human; details: HCA2 fibroblasts, 8 days after 10Gy XRAY
Source text: FIG. 2. Knockdown of FOXO4 results in apoptosis rather than senescence in DNA-damaged IMR90 fibroblasts. A) Reduction in punctate FOXO4 staining and FOXO4 mRNA expression after 8 days 10Gy XRAY in HCA2 fibroblasts infected […] hairpins targeted at FOXO4. […] B) Increased cytoplasmic Cytochrome C staining (a marker of apoptosis; arrowheads) in DNA-damaged IMR90 cells infected with knockdown against FOXO4. The percentage apoptotic cells is quantified. C) Increased TUNEL staining (a second marker of apoptosis) in similar conditions a B.
FIG. 2A: HCA2 fibroblasts were infected with lentiviral particles containing a control shRNA-encoding vector targeted against a mature sequence in GFP (based on vector PLK0.1, Open Biosystems): 5′-[…]-3′ or two independent sequences in (human) FOXO4, shFOXO4-1: 5′-[…]-3′ and shFOXO4-2: 5′-[…]-3′. Following selection for two days in 0.5 μg/ml Puromycin cells were plated and processed as in FIG. 1 to determine FOXO4 mRNA expression and FOXO4 localization by immunofluorescence. FIG. 2B: IMR90 fibroblasts were infected and treated as in A). Following selection 2×10^5 cells were plated on coverslips and irradiated the next day. […] The percentage of cells with released Cytochrome C staining (translocated from punctual mitochondrial staining to diffuse or absent staining) was determined for 100 cells per condition. […]

[1] = tested on: MCF7 mammary carcinoma cells; assay: Cytochrome C release in MCF7 cells with FOXO4 knockdown treated with 5'-fluoro-uracil; type: cell-based, human; details: 5 μM, 40 h
Procedure: FIG. 11. Sensitization of melanoma cells other types of cancer to additional types of chemotherapy. A) A375 melanoma cells were incubated with the FOXO4-p53 blocking peptide mix in the presence or absence of 2 μM Cisplatin and after 4 days cellular morphology was visualized. […] B) MCF7 mammary carcinoma cells were infected with the short hairpins against FOXO4 and after puromycin selection treated with 5 μM 5′-fluoro-uracil. 40 h later the percentage Cytochrome C-release was scored. The immunofluorescence panels show staining of Cytochrome C. The top, middle and bottom left panels all show mitochondrial Cytochrome C staining. […] C) B16F10Luc mouse melanoma cells were infected with a mouse-specific short hairpin against FOXO4 and short hairpin #2 against human FOXO4 from FIG. 2 which shares sequence homology with mouse FOXO4. After puromycin selection cells were incubated with 10 μM Cisplatin and after 7 days cellular viability was determined by CellTiter 96® AQueous One Solution Cell Proliferation Assay (MTS).
FIG. 11A: 2×10^5 A375 melanoma cells were plated in 24-well plate chambers. The next day the cells were incubated with 50 μM DBD2-peptide or a mixture of 25 μM DBD2-peptide and 25 μM C-term peptide in the presence or absence of 2 μM Cisplatin. […]

JNK1/2 = details: in vitro and in cultured cells; literature; cited from earlier work

For N.N.[Cl][Pt][Cl] [Cisplatin], which “sensitivity of A375-shFOXO4 versus A375-shGFP melanoma cells” value (A375 melanoma cells) is on record?
Its value is “more sensitive”.

Which “knockdown of FOXO4 mRNA and punctate FOXO4 staining” value (FOXO4) does the source give for 5′-CCAGCTTCAGTCAGCAGTTAT-3′ [shFOXO4-1] here?
Its value is “induce knockdown of FOXO4 mRNA and reduction in punctate FOXO4”.

Which “sensitivity of A375-shFOXO4 versus A375-shGFP melanoma cells” value (A375 melanoma cells) does the source give for Cn1c(Nc2ccc(C(F)(F)F)cc2)nc2cc(Oc3ccnc(-c4ncc(C(F)(F)F)[nH]4)c3)ccc21 [RAF265] here?
The value was “more sensitive”.

With O=c1[nH]cc(F)c(=O)[nH]1 [5-fluorouracyl] as the molecule, how does the “sensitization of MCF7 cells by FOXO4 knockdown (Cytochrome C release)” value [1] read?
Its value is “sensitized”.

Which “knockdown of FOXO4 mRNA and punctate FOXO4 staining” value (FOXO4) does the source give for 5′-CGTCCACGAAGCAGTTCAAAT-3′ [shFOXO4-2] here?
The value was “induce knockdown of FOXO4 mRNA and reduction in punctate FOXO4”.

With “dDdQdSdRdPdVdQdPdFdLdQdLdTdTdPdRdKdPdRdPdPdRdRdRdQdRdRdKdKdRG [D-JNK1]” as the molecule, how does the “inhibition of JNK1/2 kinase activity” value (JNK1/2) read?
The value was “selectively blocks access to its substrates”.
